Laboratory results from article PMC7504215, “Copper(II) Complexes with Mixed Heterocycle Ligands as Promising Antibacterial and Antitumor Species” (Molecules, 2020).
pIC50: −log10 of the molar value. Read-outs that look alike come from different tables or passages of the source.

Columns and labels:
[1] = tested on: P. aeruginosa 27853; test: MIC assay, liquid medium microdilution (planktonic growth); format: cell-based, Pseudomonas aeruginosa; details: P. aeruginosa 27853, 24 h at 37 °C
Procedure: (§1) The antibacterial assays were performed on Gram-negative (Escherichia coli ATCC 25922, E. coli 5, Pseudomonas aeruginosa ATCC 27853, P. aeruginosa ATCC 9027) and Gram-positive (Staphylococcus aureus ATCC 25923, S. aureus ATCC 6538, MRSA (Meticillin-resistant S. aureus) 388, ATCC, American Type Culture Collection) bacterial strains. Microbial suspensions (1.5 × 10^8 CFU/mL; colony forming units (CFU)) corresponding to 0.5 McFarland density obtained from 15 to 18-h bacterial cultures developed on solid media were used. The antimicrobial activity was tested on Mueller–Hinton agar medium.
(§2) The quantitative assay of the antimicrobial activity was performed by the liquid medium microdilution method, in 96-well multi-well plates, to establish the minimal inhibitory concentration (MIC). For this purpose, serial two-fold dilutions of the compounds ranging between 1.000 and 1.95 μg/mL were performed in a 200 μL volume of broth and each well was seeded with 50 μL microbial inoculums. Sterility control (wells containing only culture medium) and culture controls (wells containing culture medium seeded with the microbial inoculum) were used. The influence of the DMSO solvent was also quantified in a series of wells containing DMSO, diluted accordingly with the dilution scheme used for the complexes. The plates were incubated for 24 h at 37 °C, and MIC values were considered as the lowest concentration of the tested compound that inhibited the visible growth of the microbial overnight cultures.

[2] = tested on: P. aeruginosa 9027; test: as above; format: cell-based, Pseudomonas aeruginosa; details: P. aeruginosa 9027 (multi-drug-resistant), 24 h at 37 °C
Procedure: as §1, §2

[3] = tested on: B16 (melanoma) tumor cells; test: MTT cell viability assay; format: cell-based, Mouse
Procedure: The cytotoxicity of ligand and copper(II) complexes was tested on normal BJ cell as well as on B16 (melanoma) tumor cells, which were grown for 48 h in culture medium containing the tested complexes in 0–25 μg/mL concentration range.
Human fibroblast cells (BJ-ATCC CRL-2522, Manassas, VA, USA) were grown in minimal essential medium (MEM) supplemented with 2 mM L-Glutamine, 10% fetal calf serum (FCS), 100 units/mL of penicillin and 100 µg/mL of streptomycin at 37 °C in a humidified incubator under an atmosphere containing 5% CO2. Mouse melanoma cells (B16-ATCC CRL-6475, Manassas, VA, USA) were grown in DMEM (Dulbecco’s Modified Eagle Medium) supplemented with similar reagents as MEM. All cell cultivation media and reagents were purchased from Biochrom AG (Berlin, Germany) and Sigma-Aldrich (Darmstadt, Germany).
Cell viability was evaluated using 3-(4,5-dimethylthiazol-2-yl)-2,5-diphenyltetrazolium bromide (MTT) assay, as described previously. First, the cells were seeded in 96-well plates (20,000 cells/well) and cultured for 24 h in medium. After overnight incubation, the medium was changed and the investigated sample in concentration varying from […] was added for 24 h. The negative control was represented by cells cultivated in medium without the investigated compounds. Following incubation, the medium was changed and the MTT solution was added to each well to a final concentration of 1 mg/mL and incubated for additional 4 h, at 37 °C. Finally, the medium was collected and DMSO was used to dissolve the insoluble formazan product. The absorbance of the samples was recorded at 570 nm using a plate reader Mithras 940 (Berthold). The data were corrected for the background and the percentage of viable cells was obtained using the equation:Cell viability = [(A570 of treated cells)/(A570 of untreated cells)] × 100%
The half-maximal inhibitory concentration (IC50) was determined by fitting the data with a logistical sigmoidal equation using the software Origin 8.1 from Microcal Inc. (Los Angeles, CA, USA).

[4] = tested on: sod2Δ cells; format: cell-based, Saccharomyces cerevisiae; details: sod2Δ cells lacking Mn-superoxide dismutase Sod2
Procedure: (§3) The Saccharomyces cerevisiae laboratory strain BY4741 (MATa; his3Δ1; leu2Δ0; met15Δ0; ura3Δ0), considered wild type (WT), and the isogenic strains sod1Δ and sod2Δ lacking the genes SOD1 (encoding Cu/Zn-superoxide dismutase) and SOD2 (encoding Mn-superoxide dismutase) were purchased from EUROSCARF (Frankfurt, Germany). Cells were maintained and manipulated and grown in YPD medium (1% w/v yeast extract, 2% w/v peptone, 2% w/v glucose; 2% w/v agar was added for solid media). Complexes were added to autoclaved media from DMSO sterile stocks (10 mM). To determine the effect of compounds on yeast growth, a fresh overnight pre-culture was 10^3-fold diluted in YPD and incubated (200 rpm, 30 °C) until the culture reached a density of 5 × 10^5 cells/mL. At this point, the compounds were added to the desired concentrations, and cell proliferation was monitored at 660 nm in a 96-well multi-scanner autoreader plate reader equipped with a thermostat and shaker (Varioskan Thermo Fischer Scientific, Vantaa, Finland). The uptake of compounds by yeast cells was determined indirectly by measuring the increase of the total cellular copper content normalized to the total cellular protein determined by Bradford assay. All determinations were done on three biological replicates. The IC50 was calculated by nonlinear regression analysis using the Graphpad Prism software.

[5] = tested on: sod1Δ cells; format: cell-based, Saccharomyces cerevisiae; details: sod1Δ cells lacking Cu/Zn-superoxide dismutase Sod1
Procedure: as §3

[6] = tested on: S. aureus 6538; test: MBEC assay, micro-titer method (biofilm); format: cell-based, Staphylococcus aureus
Procedure: as §1
(§4) The assessment of the complexes’ influence on the microbial ability to colonize an inert substratum with the establishment of the minimal biofilm eradication concentration (MBEC) was performed by the micro-titer method, following previously described protocols. The absorbance at 490 nm was measured with an Apollo LB 911ELISA (Berthold Technologies GmbH & Co. KG, Waltham, MA, USA) reader. All experiments were performed in triplicates.

[7] = tested on: MRSA; test: MBEC assay, micro-titer method (biofilm); format: cell-based, Staphylococcus aureus
Procedure: as §1, §4

[8] = tested on: human red blood cells (hRBCs); test: Hemolytic activity (adapted ASTM F 756-00); format: cell-based; details: 25 µg/mL, 4 h at 37 °C, threshold 5% (ASTM F 756-00)
Procedure: The hemolytic activity of the compounds was determined using an adapted protocol of ASTM F 756–00 standard based on hemoglobin release from human red blood cells (hRBCs) resulting after cell lyses. Briefly, the blood samples were collected from healthy volunteers, diluted to a concentration of hemoglobin ~10 mg/mL with phosphate buffer saline (PBS) and then incubated with various concentrations of compounds for 4 h at 37 °C. After 4 h, the cells were centrifuged, the supernatant was collected, transferred into 96-well tissue culture plates and mixed with Drabkin reagent, which converts hemoglobin to cyanmethemoglobin (absorption peak at 540 nm). After 15 min, the absorbance of the samples was read at 570 nm using a plate reader. The obtained data was background corrected and used to calculate the hemolytic index as percentage of the hemoglobin released after the treatment with the tested compounds, relative to control samples. The hRBCs in PBS and distilled water were used as negative and positive controls.

[9] = B16 cells, 48 h, MTT, read-out: IC50 B16 Cells 48 h

Structure (SMILES)	MIC [1]	MIC [2]	Effect on viability of B16 cells ([3]; 24 h of treatment, 0–25 μg/mL)	IC50 B16 Cells 48 h ([3]; B16 cells, 48 h, MTT)	pIC50 [3, 9]	Toxicity compared with WT yeast [4]	Toxicity compared with WT yeast [5]	MBEC value [6]	MBEC value [7]	Hemolysis [8]	IC50 B16 Cells 24 h ([3]; B16 cells, 24 h, MTT)	pIC50 ([3]; B16 cells, 24 h, MTT, read-out: IC50 B16 Cells 24 h)
Cc1cc(-c2ccccc2)nc2ncnn12.[Cu+2].[O-][Cl+3]([O-])([O-])[O-].[O-][Cl+3]([O-])([O-])[O-].c1ccc(-c2ccccn2)nc1.c1ccc(-c2ccccn2)nc1 [(1), [Cu(bpy)2(pmtp)](ClO4)2]	400 µM	400 µM	did not affect the viability of B16 cells	15.46 µg/mL	4.70	even more toxic	even more toxic	0.10 mM	0.40 mM	0.59 ± 0.18%		
Cc1cc(-c2ccccc2)nc2ncnn12.[Cu+2].[O-][Cl+3]([O-])([O-])[O-].[O-][Cl+3]([O-])([O-])[O-].c1cnc2c(c1)ccc1cccnc12.c1cnc2c(c1)ccc1cccnc12 [(2), [Cu(phen)2(pmtp)](ClO4)2]	90 µM	90 µM		3.72 µg/mL	5.40	even more toxic	even more toxic	0.02 mM	0.05 mM	0.77 ± 0.14%	6.25 µg/mL	5.12
